The results in this text go back to PubChem BioAssay (NCI).

Holding throughout (experiment): NCI tumour cell line growth inhibition, 48 h
In assay [1] the test system is SF-268 CNS.
In assay [2] the test system is SNB-19 CNS.
Assay [3] deals with UO-31 renal.
Assay [4] has as its system RPMI-8226 leukemia.
The test system of assay [5] is CCRF-CEM leukemia.
The subject of assay [6] is HT29 colon.
Assay [7] deals with IGROV1 ovarian.
The test system of assay [8] is NCI-H23 lung.
Assay [9] concerns NCI-H460 lung.
The subject of assay [10] is SF-539 CNS.

SMILES strings stand for the structures.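 1) Cells in 96-well plates. 2) Compound, 48 h, 5 concentrations. 3) Linear interpolation between surrounding doses. 4) Unreached endpoint = highest concentration. At the GI50, growth is halved. TGI marks complete inhibition of growth.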

In the case of `[pH]1p2[pH]p3p1p3[pH]2.c1cc[c]([Ge]([c]2ccccc2)[c]2ccccc2)cc1.c1cc[c]([Ge]([c]2ccccc2)[c]2ccccc2)cc1.c1cc[c]([Ge]([c]2ccccc2)[c]2ccccc2)cc1`, the GI50 was 16.4 µM in assay [1]; 14.1 µM in assay [2]; 16.3 µM in [3]; 17.6 µM in [4]; 28 µM in assay [5]; 17.6 µM in assay [6]. In addition, the GI50 is 30 µM in assay [7], 15.3 µM in assay [8], 6.95 µM in assay [9] and 13.9 µM in [10]. Moreover, the TGI in assay [1] was 40.7 µM; in assay [2] it was 27.2 µM; in [3] it was 29.8 µM; in [4], 75.5 µM; in assay [5] it was above 100 µM; in assay [6], 34 µM. Moreover, the TGI came to 62.5 µM in assay [7], 31.2 µM in [8], 27.5 µM in assay [9] and 31.8 µM in assay [10].
Consider `CC(C)(Oc1cccc(N2CCC[C@@H](C(=O)N(Cc3ccc(-c4cn[nH]c4)cc3)C3CC3)C2)c1)C(=O)N1CCNCC1`, for which the GI50 was 10.7 µM in [1]; 15.1 µM in [2]; 12.1 µM in [3]; 7.11 µM in assay [4]; 24.1 µM in [5]; 6.3 µM in [6]. The GI50 in assay [7] was 12.3 µM; in [8], 14 µM; in [9], 12.3 µM; in assay [10] it was 11.4 µM. The TGI in [1] was 24.7 µM; in assay [2] it was 29.7 µM; in assay [3], 26.8 µM; in assay [4], 31.3 µM; in [5], above 100 µM; in assay [6], 19.7 µM. Besides, the TGI in assay [7] came out at 26.8 µM; in assay [8] it was 28.9 µM; in [9], 27.2 µM; in [10] it was 24.2 µM.
Take `c1ccc(-c2sc(-c3ccccc3)c3c2C(c2ccccc2)c2c(-c4ccccc4)sc(-c4ccccc4)c2C3c2ccccc2)cc1` (centres undefined): the TGI in assay [1], in assay [2], in assay [3], in assay [4], in assay [5] and in [6] was above 100 µM in each case. Also, the TGI in assay [7], in [8], in assay [9] and in assay [10] was above 100 µM each time.
As for `CCNCCS(=O)(=O)NC[C@@]1(c2ccccc2)SC(NC(=O)C(C)(C)C)=NN1C(=O)C(C)(C)C`, the GI50 in assay [1] is below 0.01 µM; in assay [3] it was 18.8 µM; in assay [4], below 0.01 µM; in assay [5] it was below 0.01 µM; in assay [6] it was below 0.01 µM; in assay [7], 2.9 µM. Besides, the GI50 was 0.0282 µM in assay [8], below 0.01 µM in assay [9] and below 0.01 µM in assay [10]. For the same molecule, the TGI in [1], in [2], in assay [3], in [4], in assay [5] and in assay [6] was above 100 µM each time. Further, the TGI is above 100 µM in assay [7], above 100 µM in assay [8], above 41.9 µM in assay [9] and 0.768 µM in assay [10].
As to `CCP(C)(=O)CC`, the TGI in [1], in assay [2], in assay [3], in assay [4], in assay [5] and in assay [6] was above 100 µM throughout. Further, the TGI in assay [7], in assay [8], in [9] and in [10] was above 100 µM each time.
For `CS(=O)(=O)ON1C(=O)c2ccc(N)cc2C1=O`, the TGI in assay [1] is above 95.7 µM; in assay [2], above 100 µM; in assay [3] it was above 100 µM; in [4], 61.5 µM; in assay [5], above 76.7 µM; in assay [6] it was above 100 µM. Moreover, the TGI in assay [7], in [8], in [9] and in assay [10] was above 100 µM each time.
In the case of `O=C(Nc1nc2ccc(OC(F)(F)F)cc2s1)c1ccc(F)cc1`, the GI50 in [1] is 3.71 µM; in [2] it was 3.74 µM; in assay [3] it was 3.44 µM; in [4], 2.52 µM; in assay [5] it was 3.96 µM; in assay [6], 3.88 µM. The GI50 is 3.89 µM in assay [7], 2.9 µM in [8], 3.02 µM in assay [9] and 2.26 µM in assay [10]. In addition, the TGI in [1] is above 100 µM; in [2], above 100 µM; in assay [3] it was above 100 µM; in [4] it was 8.08 µM; in assay [5] it was above 100 µM; in [6] it was above 100 µM. The TGI in assay [7] is above 100 µM; in assay [8], 8.73 µM; in [9], 20.7 µM; in assay [10], 6.95 µM.
`CN1CCC(=C(c2ccc(Cl)cc2)c2ccccn2)CC1`: the GI50 was above 100 µM in assay [1]; above 100 µM in assay [2]; 18.5 µM in assay [3]; above 100 µM in assay [4]; 4.37 µM in assay [5]; 78.8 µM in assay [6]. Moreover, the GI50 in assay [7] is 78.7 µM; in assay [8], above 100 µM; in assay [9], above 100 µM; in assay [10] it was 85.1 µM. For the same molecule, the TGI in assay [1], in assay [2], in [3], in assay [4], in assay [5] and in assay [6] was above 100 µM in each case. The TGI in [7], in assay [8], in [9] and in assay [10] was above 100 µM throughout.
